Counter-ions that a name gives are not always drawn.
molecular target: recombinant human AMPK complex 1 (containing α1β1γ1) (Homo sapiens, UniProt Q13131+Q9Y478); assay: […] (in vitro AMPK activation assay); assay type: biochemical; conditions: read-out: % Maximum AMP Activation of human AMPK Complex 1, recombinant human AMPK complex 1 (α1β1γ1); basal activity subtracted
Method: Recombinant viruses were generated by cotransfection of AMPK/pBacPak9 clones with Baculogold baculovirus DNA (Pharmingen) in spodoptera frugiperda 21 cells according to the manufacturer's instructions. Each round of virus amplification was performed for 5 days in Grace's medium containing 10% serum. Virus that had been subjected to three rounds of amplification was used for all protein production procedures. To express the AMPK complex, sf21 cells were adapted to serum free medium (SF900 II, Invitrogen) by sequential dilution from serum containing stocks into SF900 II medium and maintained in shaker flasks at 90 rpm at 27° C. The recombinant AMPK enzyme complex was produced by triple infection, one recombinant virus for each of the subunits, in sf21 cells under serum free conditions. […] Cells were harvested by centrifugation at 10,000×g for 15 minutes after 72 hours of infection with viruses. The insect cell pellet from 2 liters of culture was resuspended in 50 ml lysis buffer (20 mM Tris-HCl, 50 mM NaCl, 50 mM NaF, 30 mM Na PPi, 0.25 M sucrose, 10 mM ZnCl2, 2 mM DTT, 0.4 mg/ml digitonin) and subjected to two cycles of freeze-thaw lysis in a dry-ice ethanol bath. Insoluble material was removed by centrifugation at 10,000×g and the supernatant was fractionated with use of polyethylene glycol (PEG).
The total in vitro AMPK activation assay volume is 50 μl in a 96-well plate. […] The reaction was initiated with addition of the enzyme. After 30-minute incubation at 30° C., the reaction was stopped by addition of 80 μl 1% H3PO4. Aliquots (100 μl) were transferred to 96-well MultiScreen plates (MAPHNOB50; Millipore Corp., Bedford, Mass., USA). The plate was washed three times with 1% H3PO4 followed by detection in a Top-count. The counts per minute from the basal activity (the reaction without activator) was subtracted from each well and the data were expressed as % maximum AMP activation followed by EC50 calculation.

recombinant human AMPK complex 1 (containing α1β1γ1), sequence (Q13131 whole entry): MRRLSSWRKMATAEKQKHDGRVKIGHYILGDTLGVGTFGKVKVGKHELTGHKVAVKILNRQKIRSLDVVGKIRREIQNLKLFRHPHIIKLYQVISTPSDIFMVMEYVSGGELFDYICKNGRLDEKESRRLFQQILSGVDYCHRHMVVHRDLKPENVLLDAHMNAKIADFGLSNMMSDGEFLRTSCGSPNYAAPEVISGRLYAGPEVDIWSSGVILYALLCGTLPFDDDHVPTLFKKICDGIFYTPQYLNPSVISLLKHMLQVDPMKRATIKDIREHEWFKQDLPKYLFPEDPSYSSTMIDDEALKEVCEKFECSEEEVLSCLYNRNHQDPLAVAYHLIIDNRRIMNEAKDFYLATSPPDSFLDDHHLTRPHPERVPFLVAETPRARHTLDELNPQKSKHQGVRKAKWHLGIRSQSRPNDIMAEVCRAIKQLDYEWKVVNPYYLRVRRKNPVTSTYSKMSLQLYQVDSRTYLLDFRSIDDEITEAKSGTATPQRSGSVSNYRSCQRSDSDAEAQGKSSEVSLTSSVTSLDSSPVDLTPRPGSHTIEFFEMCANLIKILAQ
recombinant human AMPK complex 1 (containing α1β1γ1), sequence (Q9Y478 whole entry): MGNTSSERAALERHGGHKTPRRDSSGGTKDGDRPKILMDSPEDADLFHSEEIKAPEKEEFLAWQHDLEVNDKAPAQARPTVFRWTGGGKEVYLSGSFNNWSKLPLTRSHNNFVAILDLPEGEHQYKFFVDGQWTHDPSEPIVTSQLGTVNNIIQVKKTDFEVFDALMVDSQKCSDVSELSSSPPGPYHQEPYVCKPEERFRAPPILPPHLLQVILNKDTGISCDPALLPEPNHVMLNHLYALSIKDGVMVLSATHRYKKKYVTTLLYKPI
recombinant human AMPK complex 1 (containing α1β1γ1), sequence (P54619 whole entry partner): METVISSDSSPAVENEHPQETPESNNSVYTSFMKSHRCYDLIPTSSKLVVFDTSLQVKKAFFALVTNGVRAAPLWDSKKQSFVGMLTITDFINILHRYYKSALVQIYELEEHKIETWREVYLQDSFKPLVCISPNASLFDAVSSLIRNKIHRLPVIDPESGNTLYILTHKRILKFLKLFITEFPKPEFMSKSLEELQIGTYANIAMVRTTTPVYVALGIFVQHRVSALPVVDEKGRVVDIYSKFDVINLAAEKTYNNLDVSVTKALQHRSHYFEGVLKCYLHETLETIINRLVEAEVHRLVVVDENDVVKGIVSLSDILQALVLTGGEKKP

SMILES | Emax [%]
O=C(O)Cn1nnnc1Sc1nc2cc(-c3ccc(-c4ccccc4)cc3)c(Cl)cc2[nH]1 [Example 55, [5-(5-biphenyl-4-yl-6-chloro-1H-benzo-imidazol-2-ylsulfanyl)-tetrazol-1-yl]-acid, ammonium salt] | > 80
Cc1ccc(Oc2nc3cc(-c4cccc(C(C)C)c4)c(Cl)cc3[nH]2)cc1C(=O)O [Example 339, Ammonium 5-{[6-chloro-5-(3-isopropylphenyl)-1H-benzimidazol-2-yl]oxy}-2-methylbenzoate] | > 80
Cc1ccc(-c2cc3nc(Oc4ccc(C)c(C(=O)O)c4)[nH]c3cc2Cl)cc1C [Example 340, Ammonium 5-{[6-chloro-5-(3,4-dimethylphenyl)-1H-benzimidazol-2-yl]oxy}-2-methylbenzoate] | > 80
COc1cccc(-c2cc3nc(Oc4ccc(C)c(C(=O)O)c4)[nH]c3cc2Cl)c1 [Example 338, Ammonium 5-{[6-chloro-5-(3-methoxyphenyl)-1H-benzimidazol-2-yl]oxy}-2-methylbenzoate] | > 80
O=C(O)c1cccc(Oc2nc3cc(-c4ccc(-c5ccccc5)cc4)c(Cl)cc3[nH]2)c1 [Example 56, 3-(5-biphenyl-4-yl-6-chloro-1H-benzo-imidazol-2-yloxy)-benzoic acid, ammonium salt] | > 80

same assay, conditions: recombinant human AMPK complex 1 (α1β1γ1); basal activity subtracted; read-out: % Maximum AMP Activation of human AMPK Complex 1

SMILES | Emax [%]
Cc1ccc(Oc2nc3cc(-c4ccc5[nH]cc(C)c5c4)c(Cl)cc3[nH]2)cc1C(=O)O [Example 287, 5-[6-Chloro-5-(3-methyl-1H-indol-5-yl)-1H-benzoimidazol-2-yloxy]-2-methyl-benzoic acid] | > 80
Cc1ccc(Oc2nc3cc(C#Cc4ccc(-c5cc[nH]n5)cc4)c(Cl)cc3[nH]2)cc1C(=O)O [Example 74, 5-{6-Chloro-5-[4-(1H-pyrazol-3-yl)-phenylethynyl]-1H-benzoimidazol-2-yloxy}-2-methyl-benzoic acid] | > 80
Cc1ccc(Oc2nc3cc(-c4ccc(-c5ccc(C(=O)O)cc5)cc4)c(Cl)cc3[nH]2)cc1C(=O)O [Example 102, 4′-[2-(3-Carboxy-4-methyl-phenoxy)-6-chloro-1H-benzoimidazol-5-yl]-biphenyl-4-carboxylic acid] | > 80
COC(=O)C1(c2ccc(Oc3nc4cc(-c5ccc(-c6ccccc6)cc5)c(Cl)cc4[nH]3)cc2)CC1 [Example 6, 1-[4-(5-Biphenyl-4-yl-6-chloro-1H-benzoimidazol-2-yloxy)-phenyl]-cyclopropanecarboxylic acid methyl ester] | > 80
Cc1ccc(C#Cc2cc3nc(Oc4ccc(C)c(C(=O)O)c4)[nH]c3cc2Cl)cn1 [Example 132, 5-[6-Chloro-5-(6-methyl-pyridin-3-ylethynyl)-1H-benzoimidazol-2-yloxy]-2-methyl-benzoic acid] | > 80
COC(=O)c1cc(Oc2nc3cc(-c4ccc(-c5ccccc5Cl)cc4)c(Cl)cc3[nH]2)ccc1C [Example 196, Methyl 5-{[6-chloro-5-(2′-chlorobiphenyl-4-yl)-1H-benzimidazol-2-yl]oxy}-2-methylbenzoate] | > 80
Cc1ccc(Oc2nc3cc(-c4ccc5c(c4)c(CN(C)C)cn5C)c(Cl)cc3[nH]2)cc1C(=O)O [Example 353, 5-[6-Chloro-5-(3-dimethylaminomethyl-1-methyl-1H-indol-5-yl)-1H-benzoimidazol-2-yloxy]-2-methyl-benzoic acid] | > 80
COc1cccc(C#Cc2cc3nc(Oc4ccc(C)c(C(=O)O)c4)[nH]c3cc2Cl)c1 [Example 108, 5-[6-Chloro-5-(3-methoxy-phenylethynyl)-1H-benzoimidazol-2-yloxy]-2-methyl-benzoic acid] | > 80
Cc1ccc(Oc2nc3cc(-c4ccc(N5CCNCC5)nc4)c(Cl)cc3[nH]2)cc1C(=O)O [Example 174, 5-[6-Chloro-5-(6-piperazin-1-yl-pyridin-3-yl)-1H-benzoimidazol-2-yloxy]-2-methyl-benzoic acid] | > 80
O=C(O)c1cc(COc2nc3cc(-c4ccc(-c5ccccc5)cc4)c(Cl)cc3[nH]2)cc(C(=O)O)c1 [Example 227, 5-(5-Biphenyl-4-yl-6-chloro-1H-benzoimidazol-2-yloxymethyl)-isophthalic acid] | > 80
Cc1ccc(Oc2nc3cc(-c4cnn(CC(C)C)c4)c(Cl)cc3[nH]2)cc1C(=O)O [Example 159, 5-[6-Chloro-5-(1-isobutyl-1H-pyrazol-4-yl)-1H-benzoimidazol-2-yloxy]-2-methyl-benzoic acid] | > 80
COC(=O)c1cc(Oc2nc3cc(-c4ccc(-c5ccccc5)cc4)c(Cl)cc3[nH]2)cc(C)c1C [Example 14, 5-(5-Biphenyl-4-yl-6-chloro-1H-benzoimidazol-2-yloxy)-2,3-dimethyl-benzoic acid methyl ester] | > 80
Cc1ccc(Oc2nc3cc(-c4cnc(N5CCCC5)nc4)c(Cl)cc3[nH]2)cc1C(=O)O [Example 257, 2-(3-carboxy-4-methylphenoxy)-6-chloro-5-(2-pyrrolidin-1-yl-pyrimidin-5-yl)-1H-3,1-benzimidazol-3-ium trifluoroacetate] | > 80
O=C(O)Cc1cccc(Oc2nc3cc(C#Cc4ccccc4)c(Cl)cc3[nH]2)c1 [Example 22, [3-(6-Chloro-5-phenylethynyl-1H-benzoimidazol-2-yloxy)-phenyl]-acetic acid] | > 80
Cc1ccc(Oc2nc3cc(-c4ccc5c(c4)CCN5C)c(Cl)cc3[nH]2)cc1C(=O)O [Example 282, 5-[6-Chloro-5-(1-methyl-2,3-dihydro-1H-indol-5-yl)-1H-benzoimidazol-2-yloxy]-2-methyl-benzoic acid] | > 80
Cc1ccc(Oc2nc3cc(-c4ccc(N5CCCC5=O)cc4)c(Cl)cc3[nH]2)cc1C(=O)O [Example 350, 2-(3-carboxy-4-methylphenoxy)-6-chloro-5-[4-(2-oxopyrrolidin-1-yl)phenyl]-1H-3,1-benzimidazol-3-ium trifluoroacetate] | > 80
Cc1ccc(Oc2nc3cc(-c4ccc5c(cnn5C)c4)c(Cl)cc3[nH]2)cc1C(=O)O [Example 142, 5-[6-Chloro-5-(1-methyl-1H-indazol-5-yl)-1H-benzoimidazol-2-yloxy]-2-methyl-benzoic acid] | > 80
Cc1ccc(Oc2nc3cc(-c4ccc(-c5ccccc5)c(C)c4)c(Cl)cc3[nH]2)cc1C(=O)O [Example 303, 5-[6-Chloro-5-(2-methyl-biphenyl-4-yl)-1H-benzoimidazol-2-yloxy]-2-methyl-benzoic acid] | > 80
Cc1ccc(Oc2nc3cc(-c4ccc5c(c4)CC(=O)N5C)c(Cl)cc3[nH]2)cc1C(=O)O [Example 304, 5-[6-Chloro-5-(1-methyl-2-oxo-2,3-dihydro-1H-indol-5-yl)-1H-benzoimidazol-2-yloxy]-2-methyl-benzoic acid] | > 80
Cc1ccc(Oc2nc3cc(-c4ccc(C(C)(C)N)cc4)c(Cl)cc3[nH]2)cc1C(=O)O [Example 297, 2-{4-[2-(3-carboxy-4-methylphenoxy)-6-chloro-1H-benzimidazol-5-yl]phenyl}propan-2-aminium trifluoroacetate] | > 80
Cc1ccc(Oc2nc3cc(-c4ccc(-c5ccccc5)cc4)c(Cl)cc3[nH]2)cc1C(=O)NS(C)(=O)=O [Example 221, N-[5-(5-Biphenyl-4-yl-6-chloro-1H-benzoimidazol-2-yloxy)-2-methyl-benzoyl]-methanesulfonamide] | > 80
Cc1ccc(Oc2nc3cc(-c4ccc(-c5ccc(=O)n(C(F)F)c5)cc4)c(Cl)cc3[nH]2)cc1C(=O)O [Example 162, 5-{6-Chloro-5-[4-(1-difluoromethyl-6-oxo-1,6-dihydro-pyridin-3-yl)-phenyl]1H-benzoimidazol-2-yloxy}-2-methyl-benzoic acid] | > 80
Cc1ccc(Oc2nc3cc(-c4ccc5c(c4)CN(C(C)C)C5)c(Cl)cc3[nH]2)cc1C(=O)O [Example 299, 5-[2-(3-carboxy-4-methylphenoxy)-6-chloro-1H-benzimidazol-5-yl]-2-isopropyl-2,3-dihydro-1H-isoindolium trifluoroacetate] | > 80
O=C(O)c1cc(Oc2nc3cc(-c4ccc(-c5ccccc5)cc4)c(Cl)cc3[nH]2)ccc1O [Example 28, 5-(5-Biphenyl-4-yl-6-chloro-1H-benzoimidazol-2-yloxy)-2-hydroxy-benzoic acid] | > 80
Cc1ccc(Oc2nc3cc(C#Cc4ccc(OC(F)(F)F)cc4)c(Cl)cc3[nH]2)cc1C(=O)O [Example 95, 5-[6-Chloro-5-(4-trifluoromethoxy-phenylethynyl)-1H-benzoimidazol-2-yloxy]-2-methyl-benzoic acid] | > 80
Cc1ccc(Oc2nc3cc(-c4ccc5ccn(C)c5c4)c(Cl)cc3[nH]2)cc1C(=O)O [Example 284, 5-[6-Chloro-5-(1-methyl-1H-indol-6-yl)-1H-benzoimidazol-2-yloxy]-2-methyl-benzoic acid] | > 80
